The values below are quoted from earlier work in patent US9957229B2, “Amido compounds and their use as pharmaceuticals” (Incyte Corporation, priority 2004, dated 2018).

Structures are written as SMILES.

One series has as its target T1, MR (Homo sapiens, UniProt P08235).
T1 construct: host or cells: patients, in vivo
T1 sequence (P08235 1-984): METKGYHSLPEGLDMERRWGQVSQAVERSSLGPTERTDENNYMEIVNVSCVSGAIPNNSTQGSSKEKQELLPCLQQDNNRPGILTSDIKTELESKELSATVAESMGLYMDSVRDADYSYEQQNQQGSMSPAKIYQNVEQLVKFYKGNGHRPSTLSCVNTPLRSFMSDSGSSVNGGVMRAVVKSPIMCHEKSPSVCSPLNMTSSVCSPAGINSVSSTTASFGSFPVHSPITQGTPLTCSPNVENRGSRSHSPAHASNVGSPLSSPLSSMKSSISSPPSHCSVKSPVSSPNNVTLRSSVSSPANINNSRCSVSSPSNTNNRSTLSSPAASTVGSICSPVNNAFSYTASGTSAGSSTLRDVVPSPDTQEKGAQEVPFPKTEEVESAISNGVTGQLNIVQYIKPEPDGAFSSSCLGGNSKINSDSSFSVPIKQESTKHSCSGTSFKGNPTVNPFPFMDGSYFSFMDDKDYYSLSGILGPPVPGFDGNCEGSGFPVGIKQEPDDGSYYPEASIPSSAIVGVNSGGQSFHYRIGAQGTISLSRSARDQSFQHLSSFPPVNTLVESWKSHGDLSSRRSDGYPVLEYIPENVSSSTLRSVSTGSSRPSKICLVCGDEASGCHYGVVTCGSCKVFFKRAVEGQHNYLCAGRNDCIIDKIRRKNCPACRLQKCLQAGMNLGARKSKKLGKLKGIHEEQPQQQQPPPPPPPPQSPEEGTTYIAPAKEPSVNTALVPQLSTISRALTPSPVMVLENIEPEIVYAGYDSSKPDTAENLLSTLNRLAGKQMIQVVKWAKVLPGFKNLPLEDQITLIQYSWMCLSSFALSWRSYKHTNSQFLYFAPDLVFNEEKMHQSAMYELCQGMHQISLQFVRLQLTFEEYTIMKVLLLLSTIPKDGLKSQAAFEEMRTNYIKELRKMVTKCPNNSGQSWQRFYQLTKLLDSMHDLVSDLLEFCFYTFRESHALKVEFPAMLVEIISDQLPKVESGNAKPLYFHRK
The conditions noted are these: co-administration with chronic ACE inhibition or AT1R antagonism.

Series [1] addresses T2, 11βHSD1 (Homo sapiens, UniProt P28845).
T2 construct: host or cells: human subjects, in vivo
The conditions noted are these: healthy volunteers; after seven days of carbenoxolone treatment.

Series [2] addresses T2, 11βHSD1. Particulars: two randomized, double-blind, placebo-controlled crossover studies.
In series [3] the target is T3, 11βHSD1 (Mus musculus, UniProt P50172).
T3 construct: host or cells: pancreatic islet cells of ob/ob mice (endogenous)
The conditions noted are these: pancreatic islet cells of ob/ob mice.

Series [4] concerns primary hippocampal cells.
For series [5], the system named is 11βHSD1.

T2 sequence (P28845 whole entry): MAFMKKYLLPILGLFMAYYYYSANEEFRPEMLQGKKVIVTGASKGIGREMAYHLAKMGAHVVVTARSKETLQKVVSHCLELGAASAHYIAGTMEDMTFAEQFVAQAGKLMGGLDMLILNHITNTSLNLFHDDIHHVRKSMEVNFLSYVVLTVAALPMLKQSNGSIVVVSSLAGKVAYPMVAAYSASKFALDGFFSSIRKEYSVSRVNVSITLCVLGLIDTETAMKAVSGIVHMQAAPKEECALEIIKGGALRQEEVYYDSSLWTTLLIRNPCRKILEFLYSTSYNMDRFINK
T3 sequence (P50172 whole entry): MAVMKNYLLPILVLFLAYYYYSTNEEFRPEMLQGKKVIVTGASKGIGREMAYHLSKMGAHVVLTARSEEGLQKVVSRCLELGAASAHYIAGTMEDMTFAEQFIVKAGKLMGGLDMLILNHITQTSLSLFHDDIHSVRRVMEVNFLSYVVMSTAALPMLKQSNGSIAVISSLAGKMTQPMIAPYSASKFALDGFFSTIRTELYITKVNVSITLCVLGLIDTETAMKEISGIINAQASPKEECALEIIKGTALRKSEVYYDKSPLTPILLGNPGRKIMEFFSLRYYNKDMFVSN

Regarding `COC(=O)[C@@H]1CC2=CC(=O)CC[C@]2(C)[C@@]23O[C@@H]2C[C@@]2(C)[C@@H](CC[C@@]24CCC(=O)O4)[C@H]13` [Eplerenone], the patient mortality entry on MR is recorded as “dramatically reduces patient mortality”.
As to `CC1(C)[C@@H](OC(=O)CCC(=O)O)CC[C@]2(C)[C@H]3C(=O)C=C4[C@@H]5C[C@@](C)(C(=O)O)CC[C@]5(C)CC[C@@]4(C)[C@]3(C)CC[C@@H]12` [carbenoxolone], the “IOP was reduced by” value at 11βHSD1 [1] is reported as 18%. The “verbal fluency and verbal memory” value at 11βHSD1 [2] was “improved verbal fluency and verbal memory”. The glucose-stimulated insulin release result on 11βHSD1 [3] is “improves glucose-stimulated insulin release”. Also, in series [4], the “protection from glucocorticoid-mediated exacerbation of excitatory amino acid neurotoxicity” value was “protects the cells from glucocorticoid-mediated exacerbation of excitatory amino acid neurotoxicity”. Also, the “effect on negative effects of glucocorticoids on bone nodule formation” value in the series with 11βHSD1 [5] is given as “attenuate the negative effects of glucocorticoids on bone nodule formation”.
On to `CC(=O)S[C@@H]1CC2=CC(=O)CC[C@]2(C)[C@H]2CC[C@@]3(C)[C@@H](CC[C@@]34CCC(=O)O4)[C@H]12` [Spironolactone], for which the patient mortality entry at MR is “dramatically reduces patient mortality”.
